Test results taken from patent US11820975B2, “Human blood brain barrier model” (National Research Council of Canada, priority 2014, dated 2023).

How the values were obtained:
[1] = test system: AF-iPSC-BECs; assay type: in vitro ADME, human; conditions: AF-iPSC-BECs vs. HBMECs (Cell Systems), FIG. 6C
[2] = test system: AF-iPSC-derived neurons; assay type: cell-based, human
[3] = test system: AF-iPSC-BECs; assay type: cell-based, human; conditions: BBB model cultured with the agent; ACMx2 for 24 hours; FIG. 7A-B

O=C([O-])c1ccccc1-c1c2ccc(=O)cc-2oc2cc([O-])ccc12.[Na+].[Na+] [Sodium fluorescein]
Sodium fluorescein permeability of AF-iPSC-BECs compared with HBMECs [1]: significantly lower

NC1=N[C@H](O)[C@H]2[C@H]3O[C@]4(O)O[C@@H]([C@@H](O)[C@@]2(N1)[C@@H]4O)[C@]3(O)CO [TTX, tetrodotoxin]
Effect on spiking activity [2]: eliminated spiking activity

C[C@]12CCC(=O)C=C1CC[C@@H]1[C@@H]2[C@@H](O)C[C@@]2(C)[C@H]1CC[C@]2(O)C(=O)CO [hydrocortisone]
Change in TEER value [3]: significant increase
